Assay results reported in the kinase profiling compilation of Christmann-Franck et al. (2016).

What was measured:
Assay in all cases: KINOMEscan competition binding
Settings in all cases: compound 10.0 µM
[1] = molecular target: MARK1 (human) (UniProt Q9P0L2)
[2] = molecular target: LTK (human) (UniProt P29376)
[3] = molecular target: BMPR1B (human) (UniProt O00238)
[4] = molecular target: NTRK1 (human) (UniProt P04629)
[5] = molecular target: MYO3A (human) (UniProt Q8NEV4)
[6] = molecular target: BRSK1 (human) (UniProt Q8TDC3)
[7] = molecular target: AURKC (human) (UniProt Q9UQB9)
[8] = molecular target: SRPK1 (human) (UniProt Q96SB4)
[9] = molecular target: CaMK1 (human) (UniProt Q14012)
[10] = molecular target: EPHB4 (human) (UniProt P54760)
[11] = molecular target: TLK1 (human) (UniProt Q9UKI8)
[12] = tested on: RET (human), P07949 [M918T]
[13] = molecular target: PRKG1 (human) (UniProt Q13976)
[14] = molecular target: CDK17 (human) (UniProt Q00537)
[15] = molecular target: CSK (human) (UniProt P41240)
[16] = molecular target: TNK1 (human) (UniProt Q13470)
[17] = molecular target: MAPK10 (human) (UniProt P53779)
[18] = molecular target: MAPK15 (human) (UniProt Q8TD08)
[19] = molecular target: TEK (human) (UniProt Q02763)
[20] = molecular target: MAPK3 (human) (UniProt P27361)
[21] = molecular target: CAMKK1 (human) (UniProt Q8N5S9)
[22] = molecular target: FGFR4 (human) (UniProt P22455)
[23] = molecular target: PRKD2 (human) (UniProt Q9BZL6)
[24] = molecular target: PAK6 (human) (UniProt Q9NQU5)
[25] = molecular target: CDC42BPB (human) (UniProt Q9Y5S2)
[26] = molecular target: RPS6KA5 KD1 (human) (UniProt O75582)
[27] = molecular target: MAP4K1 (human) (UniProt Q92918)
[28] = molecular target: CDK18 (human) (UniProt Q07002)
[29] = molecular target: ADCK3 (human) (UniProt Q8NI60)
[30] = molecular target: RPS6KA1 KD1 (human) (UniProt Q15418)
[31] = molecular target: NEK7 (human) (UniProt Q8TDX7)
Sequence of NEK7 (human) (Q8TDX7 whole entry, looked up): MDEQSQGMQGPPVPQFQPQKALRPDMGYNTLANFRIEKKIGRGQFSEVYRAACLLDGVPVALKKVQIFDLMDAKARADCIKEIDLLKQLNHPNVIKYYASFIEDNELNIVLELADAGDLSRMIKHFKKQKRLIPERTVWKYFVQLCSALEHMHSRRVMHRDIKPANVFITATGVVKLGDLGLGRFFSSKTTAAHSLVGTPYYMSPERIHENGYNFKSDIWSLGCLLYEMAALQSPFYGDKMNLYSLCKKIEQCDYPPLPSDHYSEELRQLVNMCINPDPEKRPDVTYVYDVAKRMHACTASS

Sequence of CaMK1 (human) (Q14012 whole entry, looked up): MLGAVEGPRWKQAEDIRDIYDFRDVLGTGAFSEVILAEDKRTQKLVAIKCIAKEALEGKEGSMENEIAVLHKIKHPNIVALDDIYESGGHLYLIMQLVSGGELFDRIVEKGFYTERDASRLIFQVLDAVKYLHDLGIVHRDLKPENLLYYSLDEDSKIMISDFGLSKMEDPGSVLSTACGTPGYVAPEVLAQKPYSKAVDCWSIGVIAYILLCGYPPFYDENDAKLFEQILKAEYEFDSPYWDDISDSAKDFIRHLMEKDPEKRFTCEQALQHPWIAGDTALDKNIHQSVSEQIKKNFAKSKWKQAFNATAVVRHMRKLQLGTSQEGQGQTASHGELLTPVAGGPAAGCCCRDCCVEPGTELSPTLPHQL
Sequence of CSK (human) (P41240 whole entry, looked up): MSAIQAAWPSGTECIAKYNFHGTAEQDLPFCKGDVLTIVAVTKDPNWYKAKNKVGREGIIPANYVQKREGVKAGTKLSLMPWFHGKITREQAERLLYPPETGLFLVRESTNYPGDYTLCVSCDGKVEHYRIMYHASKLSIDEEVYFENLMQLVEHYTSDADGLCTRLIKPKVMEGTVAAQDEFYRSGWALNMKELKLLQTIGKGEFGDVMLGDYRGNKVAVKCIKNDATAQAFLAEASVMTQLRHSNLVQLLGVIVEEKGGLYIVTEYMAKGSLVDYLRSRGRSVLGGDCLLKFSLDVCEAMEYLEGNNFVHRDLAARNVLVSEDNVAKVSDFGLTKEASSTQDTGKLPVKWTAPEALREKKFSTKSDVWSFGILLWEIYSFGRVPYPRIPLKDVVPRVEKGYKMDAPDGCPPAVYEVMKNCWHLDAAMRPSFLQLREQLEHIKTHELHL
Sequence of TLK1 (human) (Q9UKI8 whole entry, looked up): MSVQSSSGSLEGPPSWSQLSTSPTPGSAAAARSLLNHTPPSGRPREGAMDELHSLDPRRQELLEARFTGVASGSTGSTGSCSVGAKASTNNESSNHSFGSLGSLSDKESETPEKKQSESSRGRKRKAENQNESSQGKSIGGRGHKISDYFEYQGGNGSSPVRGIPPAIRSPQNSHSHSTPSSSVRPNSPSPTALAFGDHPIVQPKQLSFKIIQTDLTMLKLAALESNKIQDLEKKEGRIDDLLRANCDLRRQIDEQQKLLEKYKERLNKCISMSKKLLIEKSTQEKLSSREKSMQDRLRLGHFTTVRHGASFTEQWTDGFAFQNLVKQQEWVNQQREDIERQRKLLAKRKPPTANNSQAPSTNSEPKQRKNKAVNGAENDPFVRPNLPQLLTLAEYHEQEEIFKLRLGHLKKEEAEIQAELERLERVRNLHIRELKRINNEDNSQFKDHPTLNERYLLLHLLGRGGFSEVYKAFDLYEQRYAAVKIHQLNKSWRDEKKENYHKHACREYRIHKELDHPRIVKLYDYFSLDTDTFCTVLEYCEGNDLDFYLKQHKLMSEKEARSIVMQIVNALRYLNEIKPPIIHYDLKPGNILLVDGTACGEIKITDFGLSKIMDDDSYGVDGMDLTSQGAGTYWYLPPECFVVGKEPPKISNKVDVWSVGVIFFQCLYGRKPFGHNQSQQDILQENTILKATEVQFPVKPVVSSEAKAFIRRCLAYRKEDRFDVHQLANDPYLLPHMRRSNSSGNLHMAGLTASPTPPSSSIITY
Sequence of CDK17 (human) (Q00537 whole entry, looked up): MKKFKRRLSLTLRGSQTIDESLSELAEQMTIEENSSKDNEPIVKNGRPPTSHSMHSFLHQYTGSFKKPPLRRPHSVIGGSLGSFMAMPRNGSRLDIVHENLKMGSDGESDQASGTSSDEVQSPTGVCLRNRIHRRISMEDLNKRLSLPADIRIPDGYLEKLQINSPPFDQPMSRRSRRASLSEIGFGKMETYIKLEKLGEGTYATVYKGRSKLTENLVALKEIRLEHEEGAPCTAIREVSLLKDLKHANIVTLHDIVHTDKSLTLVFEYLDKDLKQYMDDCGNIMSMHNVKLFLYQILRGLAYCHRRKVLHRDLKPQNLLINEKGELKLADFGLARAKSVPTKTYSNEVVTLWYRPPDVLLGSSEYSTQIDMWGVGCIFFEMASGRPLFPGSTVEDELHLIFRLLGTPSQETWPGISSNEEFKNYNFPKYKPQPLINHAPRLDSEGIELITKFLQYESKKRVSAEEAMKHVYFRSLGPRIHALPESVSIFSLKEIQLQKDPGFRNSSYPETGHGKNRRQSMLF
Sequence of AURKC (human) (Q9UQB9 whole entry, looked up): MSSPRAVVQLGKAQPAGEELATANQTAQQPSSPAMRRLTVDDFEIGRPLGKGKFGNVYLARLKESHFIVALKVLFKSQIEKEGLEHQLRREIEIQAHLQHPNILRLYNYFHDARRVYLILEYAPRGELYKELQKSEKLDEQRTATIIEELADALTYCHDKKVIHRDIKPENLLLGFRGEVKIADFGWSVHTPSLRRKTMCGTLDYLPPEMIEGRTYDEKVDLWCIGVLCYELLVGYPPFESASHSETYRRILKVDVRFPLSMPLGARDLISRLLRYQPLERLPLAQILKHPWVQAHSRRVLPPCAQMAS
Sequence of TEK (human) (Q02763 whole entry, looked up): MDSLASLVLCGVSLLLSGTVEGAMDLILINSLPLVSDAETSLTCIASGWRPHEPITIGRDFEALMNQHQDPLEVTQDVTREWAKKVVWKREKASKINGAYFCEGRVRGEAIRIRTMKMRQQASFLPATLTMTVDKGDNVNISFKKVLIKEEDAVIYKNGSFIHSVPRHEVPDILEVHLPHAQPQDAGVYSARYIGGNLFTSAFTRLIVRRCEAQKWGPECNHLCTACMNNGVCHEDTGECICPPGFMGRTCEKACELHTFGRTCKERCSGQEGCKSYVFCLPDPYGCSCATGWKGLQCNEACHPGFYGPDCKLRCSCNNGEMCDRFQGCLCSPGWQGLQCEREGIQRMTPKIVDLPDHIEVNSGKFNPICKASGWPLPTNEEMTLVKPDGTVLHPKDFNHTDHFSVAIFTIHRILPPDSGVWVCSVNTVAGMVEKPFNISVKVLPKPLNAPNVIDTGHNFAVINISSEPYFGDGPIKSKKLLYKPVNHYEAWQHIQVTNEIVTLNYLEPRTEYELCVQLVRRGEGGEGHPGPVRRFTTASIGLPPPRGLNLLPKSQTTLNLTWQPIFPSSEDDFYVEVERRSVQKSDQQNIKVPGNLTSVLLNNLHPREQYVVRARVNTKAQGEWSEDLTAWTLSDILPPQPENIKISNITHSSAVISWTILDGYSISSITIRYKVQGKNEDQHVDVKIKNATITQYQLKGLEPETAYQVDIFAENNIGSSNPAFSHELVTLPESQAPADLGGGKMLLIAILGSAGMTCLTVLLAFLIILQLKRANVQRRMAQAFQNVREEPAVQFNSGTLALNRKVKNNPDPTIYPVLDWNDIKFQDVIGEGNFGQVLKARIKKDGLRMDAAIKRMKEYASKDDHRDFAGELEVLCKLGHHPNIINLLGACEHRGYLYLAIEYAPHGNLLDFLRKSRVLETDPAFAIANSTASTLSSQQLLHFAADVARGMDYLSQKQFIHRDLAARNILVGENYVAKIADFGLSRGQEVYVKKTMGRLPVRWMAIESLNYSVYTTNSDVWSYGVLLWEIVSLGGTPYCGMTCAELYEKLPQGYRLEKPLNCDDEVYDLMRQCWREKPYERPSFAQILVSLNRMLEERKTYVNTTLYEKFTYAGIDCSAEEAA
Sequence of CAMKK1 (human) (Q8N5S9 whole entry, looked up): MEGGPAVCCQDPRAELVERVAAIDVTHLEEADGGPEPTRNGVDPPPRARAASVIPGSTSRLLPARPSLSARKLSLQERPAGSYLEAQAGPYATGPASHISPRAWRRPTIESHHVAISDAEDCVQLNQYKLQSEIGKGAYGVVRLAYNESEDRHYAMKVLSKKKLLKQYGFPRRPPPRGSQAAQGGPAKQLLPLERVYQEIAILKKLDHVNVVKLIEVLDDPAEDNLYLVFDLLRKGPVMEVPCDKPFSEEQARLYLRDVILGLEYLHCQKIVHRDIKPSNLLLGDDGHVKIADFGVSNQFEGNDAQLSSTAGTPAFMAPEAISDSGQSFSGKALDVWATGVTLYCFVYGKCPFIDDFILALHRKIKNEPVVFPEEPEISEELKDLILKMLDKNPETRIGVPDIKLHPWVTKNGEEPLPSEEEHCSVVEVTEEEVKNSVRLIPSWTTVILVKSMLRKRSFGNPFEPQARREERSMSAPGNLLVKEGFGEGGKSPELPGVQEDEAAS
Sequence of SRPK1 (human) (Q96SB4 whole entry, looked up): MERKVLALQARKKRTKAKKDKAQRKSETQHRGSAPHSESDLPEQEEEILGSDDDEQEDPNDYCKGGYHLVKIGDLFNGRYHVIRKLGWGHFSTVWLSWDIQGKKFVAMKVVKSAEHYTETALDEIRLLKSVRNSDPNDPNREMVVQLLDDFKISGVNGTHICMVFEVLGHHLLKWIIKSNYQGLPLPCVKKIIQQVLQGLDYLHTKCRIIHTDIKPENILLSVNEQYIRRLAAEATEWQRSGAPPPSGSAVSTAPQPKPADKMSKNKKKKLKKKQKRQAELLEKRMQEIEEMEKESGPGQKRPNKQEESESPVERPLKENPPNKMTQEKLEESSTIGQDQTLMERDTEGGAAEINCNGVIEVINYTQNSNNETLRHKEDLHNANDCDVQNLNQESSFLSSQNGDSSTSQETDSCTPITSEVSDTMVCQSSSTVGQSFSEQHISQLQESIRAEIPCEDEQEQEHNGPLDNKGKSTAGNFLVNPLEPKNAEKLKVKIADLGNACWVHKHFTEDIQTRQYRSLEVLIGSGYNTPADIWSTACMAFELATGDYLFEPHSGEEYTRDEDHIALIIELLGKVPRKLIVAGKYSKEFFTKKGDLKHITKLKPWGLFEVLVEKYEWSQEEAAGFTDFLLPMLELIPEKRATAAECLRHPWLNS

| SMILES | kinase still bound, per cent of control [1] [%] | kinase still bound, per cent of control [2] [%] | kinase still bound, per cent of control [3] [%] | kinase still bound, per cent of control [4] [%] | kinase still bound, per cent of control [5] [%] | kinase still bound, per cent of control [6] [%] | kinase still bound, per cent of control [7] [%] | kinase still bound, per cent of control [8] [%] | kinase still bound, per cent of control [9] [%] | kinase still bound, per cent of control [10] [%] | kinase still bound, per cent of control [11] [%] | kinase still bound, per cent of control [12] [%] | kinase still bound, per cent of control [13] [%] | kinase still bound, per cent of control [14] [%] | kinase still bound, per cent of control [15] [%] | kinase still bound, per cent of control [16] [%] | kinase still bound, per cent of control [17] [%] | kinase still bound, per cent of control [18] [%] | kinase still bound, per cent of control [19] [%] | kinase still bound, per cent of control [20] [%] | further results |
| --- | --- | --- | --- | --- | --- | --- | --- | --- | --- | --- | --- | --- | --- | --- | --- | --- | --- | --- | --- | --- | --- |
| C=CC(=O)Nc1ccc(CN(C(=O)Nc2c(Cl)c(OC)cc(OC)c2Cl)c2cc(Nc3ccc(N4CCN(C)CC4)cc3)ncn2)cc1 | 100 | 27 | 100 | 100 | 100 | 100 | 100 | 100 | 100 | 100 | 100 | 0.4 | 100 | 100 | 100 | 28 | 100 | 100 | 0.95 | 100 | kinase still bound, per cent of control [21]: 100%; kinase still bound, per cent of control [22]: 0.1%; kinase still bound, per cent of control [23]: 100%; kinase still bound, per cent of control [24]: 100%; kinase still bound, per cent of control [25]: 100%; kinase still bound, per cent of control [26]: 100%; kinase still bound, per cent of control [27]: 16%; kinase still bound, per cent of control [28]: 100%; kinase still bound, per cent of control [29]: 100%; kinase still bound, per cent of control [30]: 100%; kinase still bound, per cent of control [31]: 100% |
| CCN(CC)CCCCNc1ncc2cc(-c3cc(OC)cc(OC)c3)c(NC(=O)NC(C)(C)C)nc2n1 | 100 | 100 | 100 | 100 | 100 | 100 | 100 | 100 | 100 | 100 | 100 | 100 | 100 | 100 | 100 | 100 | 100 | 100 | 100 | 100 | kinase still bound, per cent of control [21]: 100%; kinase still bound, per cent of control [23]: 100%; kinase still bound, per cent of control [24]: 100%; kinase still bound, per cent of control [25]: 100%; kinase still bound, per cent of control [26]: 100%; kinase still bound, per cent of control [27]: 100%; kinase still bound, per cent of control [28]: 100%; kinase still bound, per cent of control [29]: 100%; kinase still bound, per cent of control [30]: 100%; kinase still bound, per cent of control [31]: 100% |
| Cc1n[nH]c2ccc(-c3cncc(OC[C@@H](N)Cc4c[nH]c5ccccc45)c3)cc12 | 100 | 100 | 100 | 100 | 100 | 100 | 34 | 17 | 33 | 100 | 100 | 100 | 0.65 | 25 | 100 | 100 | 25 | 0 | 100 | 100 | kinase still bound, per cent of control [21]: 2.4%; kinase still bound, per cent of control [22]: 100%; kinase still bound, per cent of control [23]: 0%; kinase still bound, per cent of control [24]: 16%; kinase still bound, per cent of control [25]: 1%; kinase still bound, per cent of control [26]: 11%; kinase still bound, per cent of control [27]: 23%; kinase still bound, per cent of control [28]: 28%; kinase still bound, per cent of control [29]: 100%; kinase still bound, per cent of control [30]: 100%; kinase still bound, per cent of control [31]: 100% |
| CNC(=O)c1ccc(Nc2cc(Nc3ccccc3S(=O)(=O)C(C)C)c3cc[nH]c3n2)nc1 | 26 | 0 | 3.4 | 0.75 | 100 | 100 | 0.65 | 2 | 100 | 100 | 100 | 1.4 | 100 | 100 | 100 | 4 | 17 | 8 | 1.8 | 100 | kinase still bound, per cent of control [21]: 100%; kinase still bound, per cent of control [22]: 100%; kinase still bound, per cent of control [23]: 100%; kinase still bound, per cent of control [24]: 100%; kinase still bound, per cent of control [25]: 100%; kinase still bound, per cent of control [26]: 100%; kinase still bound, per cent of control [27]: 7.9%; kinase still bound, per cent of control [28]: 100%; kinase still bound, per cent of control [29]: 100%; kinase still bound, per cent of control [30]: 0.8%; kinase still bound, per cent of control [31]: 100% |
